Reference: PubChem BioAssay AID1963839 (Molecular Pharmacology Branch, DTP, NCI, 2024)
pIC50: −log10 of the molar value.

System: 817829-284-R-J1-PDC complex spheroid viability
Test: Anticancer human tumor 817829-284-R-J1-PDC patient-derived colon adenocarcinoma cell line growth inhibition [POLQ]
Details: for pIC50: curve of first compound; for viability, T/C: stronger effect = lower value
In short: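 Patient-derived tumour cells were co-cultured with HUVEC and mesenchymal stem cells as multicellular spheroids at 37 °C. They were treated with POLQ inhibitors (novobiocin, ART-558, RP6685) alone or combined with other agents. Top concentrations were at or near clinical Cmax (otherwise 10 microM; SN-38 at 1 microM), decreasing in half-log steps.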

[1] = second compound 0.0316 µM, first compound 0.0316 µM
[2] = second compound 0.0316 µM, first compound 0.1 µM
[3] = second compound 0.0316 µM, first compound 0.316 µM
[4] = second compound 0.0316 µM, first compound 1 µM
[5] = second compound 0.0316 µM, first compound 3.16 µM
[6] = second compound 0.0316 µM, first compound 10 µM
[7] = second compound 0.1 µM, first compound 0.0316 µM
[8] = second compound 0.1 µM, first compound 0.1 µM
[9] = second compound 0.1 µM, first compound 0.316 µM
[10] = second compound 0.1 µM, first compound 1 µM
[11] = second compound 0.1 µM, first compound 3.16 µM
[12] = second compound 0.1 µM, first compound 10 µM
[13] = second compound 0.316 µM, first compound 0.0316 µM
[14] = second compound 0.316 µM, first compound 0.1 µM
[15] = second compound 0.316 µM, first compound 0.316 µM
[16] = second compound 0.316 µM, first compound 1 µM
[17] = second compound 0.316 µM, first compound 3.16 µM
[18] = second compound 0.316 µM, first compound 10 µM
[19] = second compound 1 µM, first compound 0.0316 µM
[20] = second compound 1 µM, first compound 0.1 µM
[21] = second compound 1 µM, first compound 0.316 µM
[22] = second compound 1 µM, first compound 1 µM
[23] = second compound 1 µM, first compound 3.16 µM
[24] = second compound 1 µM, first compound 10 µM
[25] = second compound 3.16 µM, first compound 0.0316 µM
[26] = second compound 3.16 µM, first compound 0.1 µM
[27] = second compound 3.16 µM, first compound 0.316 µM
[28] = second compound 3.16 µM, first compound 1 µM
[29] = second compound 3.16 µM, first compound 3.16 µM
[30] = second compound 3.16 µM, first compound 10 µM
[31] = second compound 10 µM, first compound 0.0316 µM
[32] = second compound 10 µM, first compound 0.1 µM
[33] = second compound 10 µM, first compound 0.316 µM
[34] = second compound 10 µM, first compound 1 µM
[35] = second compound 10 µM, first compound 3.16 µM
[36] = second compound 10 µM, first compound 10 µM
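Note: spheroids exposed to compounds for 7 days.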
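Throughout, for viability, T/C: 100% = DMSO vehicle-treated spheroids.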

CC(C)n1c(=O)n(C)c2cnc3cc(F)c(-c4ccc(OCCCN5CCCCC5)nc4)cc3c21 + Cc1cccc(N(C)C(=O)C2C(O)CCN2c2nc(C)cc(C(F)(F)F)c2C#N)c1
pIC50 (second compound 0.0316 µM): 5.17 | pIC50 (second compound 0.1 µM): 5.12 | pIC50 (second compound 0.316 µM): 5.08 | pIC50 (second compound 1 µM): 5.22 | pIC50 (second compound 3.16 µM): 5.08 | pIC50 (second compound 10 µM): 5.22 | viability, T/C [1]: 91.7% | viability, T/C [2]: 77.1% | viability, T/C [3]: 96.6% | viability, T/C [4]: 86.3% | viability, T/C [5]: 84.3% | viability, T/C [6]: 32.1% | viability, T/C [7]: 73.6% | viability, T/C [8]: 107% | viability, T/C [9]: 91.6% | viability, T/C [10]: 76.8% | viability, T/C [11]: 106% | viability, T/C [12]: 37.5% | viability, T/C [13]: 87.3% | viability, T/C [14]: 83.3% | viability, T/C [15]: 94.4% | viability, T/C [16]: 87.6% | viability, T/C [17]: 83% | viability, T/C [18]: 43.8% | viability, T/C [19]: 99.7% | viability, T/C [20]: 86.5% | viability, T/C [21]: 99.1% | viability, T/C [22]: 72.6% | viability, T/C [23]: 73.7% | viability, T/C [24]: 34.4% | viability, T/C [25]: 93.8% | viability, T/C [26]: 70.6% | viability, T/C [27]: 78.1% | viability, T/C [28]: 100% | viability, T/C [29]: 70.5% | viability, T/C [30]: 45.8% | viability, T/C [31]: 85.7% | viability, T/C [32]: 81.6% | viability, T/C [33]: 74% | viability, T/C [34]: 67.8% | viability, T/C [35]: 79% | viability, T/C [36]: 28.9%

Nc1ccn(C2OC(CO)C(O)C2(F)F)c(=O)n1 (stereo not drawn) + Nc1ccc(C#CCN(C(=O)Cc2ncc(C(F)(F)F)cc2C(F)(F)F)c2ccc(F)cc2)nn1
pIC50 (second compound 0.0316 µM): > 7.50 | pIC50 (second compound 0.1 µM): > 7.50 | pIC50 (second compound 0.316 µM): > 7.50 | pIC50 (second compound 1 µM): > 7.50 | pIC50 (second compound 3.16 µM): > 7.50 | pIC50 (second compound 10 µM): > 7.50 | viability, T/C [1]: 3.03% | viability, T/C [2]: 4.05% | viability, T/C [3]: 4.41% | viability, T/C [4]: 4.06% | viability, T/C [5]: 2.78% | viability, T/C [6]: 2.3% | viability, T/C [7]: 3.67% | viability, T/C [8]: 4.46% | viability, T/C [9]: 3.95% | viability, T/C [10]: 3.72% | viability, T/C [11]: 3.07% | viability, T/C [12]: 1.99% | viability, T/C [13]: 3.79% | viability, T/C [14]: 3.81% | viability, T/C [15]: 4.1% | viability, T/C [16]: 4.23% | viability, T/C [17]: 2.51% | viability, T/C [18]: 2.13% | viability, T/C [19]: 3.62% | viability, T/C [20]: 4.03% | viability, T/C [21]: 4.21% | viability, T/C [22]: 3.9% | viability, T/C [23]: 2.69% | viability, T/C [24]: 1.87% | viability, T/C [25]: 4.08% | viability, T/C [26]: 3.7% | viability, T/C [27]: 3.44% | viability, T/C [28]: 3.79% | viability, T/C [29]: 2.78% | viability, T/C [30]: 1.9% | viability, T/C [31]: 5.53% | viability, T/C [32]: 3.31% | viability, T/C [33]: 3.9% | viability, T/C [34]: 3.4% | viability, T/C [35]: 3.17% | viability, T/C [36]: 2.42%

CC1COCCN1c1cc(C2(O)CC3CCC(C2)O3)c2cnn(-c3ccn[nH]3)c2n1 (stereo not drawn) + COC1C(OC(N)=O)C(O)C(Oc2ccc3c(O)c(NC(=O)c4ccc(O)c(CC=C(C)C)c4)c(=O)oc3c2C)OC1(C)C
pIC50 (second compound 0.0316 µM): > 7.50 | pIC50 (second compound 0.1 µM): > 7.50 | pIC50 (second compound 0.316 µM): > 7.50 | pIC50 (second compound 1 µM): > 7.50 | pIC50 (second compound 3.16 µM): > 7.50 | pIC50 (second compound 10 µM): > 7.50 | viability, T/C [1]: 18.5% | viability, T/C [2]: 10.7% | viability, T/C [3]: 3.93% | viability, T/C [4]: 3.7% | viability, T/C [5]: 3.65% | viability, T/C [6]: 2.96% | viability, T/C [7]: 29.2% | viability, T/C [8]: 8.78% | viability, T/C [9]: 4.49% | viability, T/C [10]: 2.72% | viability, T/C [11]: 3.01% | viability, T/C [12]: 1.82% | viability, T/C [13]: 25.9% | viability, T/C [14]: 8.28% | viability, T/C [15]: 5.16% | viability, T/C [16]: 3.2% | viability, T/C [17]: 2.69% | viability, T/C [18]: 2.57% | viability, T/C [19]: 24.7% | viability, T/C [20]: 9.42% | viability, T/C [21]: 4.54% | viability, T/C [22]: 3.29% | viability, T/C [23]: 3.01% | viability, T/C [24]: 1.8% | viability, T/C [25]: 27.9% | viability, T/C [26]: 10.5% | viability, T/C [27]: 4.65% | viability, T/C [28]: 3.82% | viability, T/C [29]: 2.76% | viability, T/C [30]: 2.53% | viability, T/C [31]: 21.5% | viability, T/C [32]: 9.85% | viability, T/C [33]: 5.03% | viability, T/C [34]: 4.12% | viability, T/C [35]: 2.91% | viability, T/C [36]: 2.64%

COc1cccc2c1C(=O)c1c(O)c3c(c(O)c1C2=O)CC(O)(C(=O)CO)CC3OC1CC(N)C(O)C(C)O1 (stereo not drawn) + Nc1ccc(C#CCN(C(=O)Cc2ncc(C(F)(F)F)cc2C(F)(F)F)c2ccc(F)cc2)nn1
pIC50 (second compound 0.0316 µM): > 7.50 | pIC50 (second compound 0.1 µM): > 7.50 | pIC50 (second compound 0.316 µM): > 7.50 | pIC50 (second compound 1 µM): > 7.50 | pIC50 (second compound 3.16 µM): > 7.50 | pIC50 (second compound 10 µM): > 7.50 | viability, T/C [1]: 21.8% | viability, T/C [2]: 21.2% | viability, T/C [3]: 5.37% | viability, T/C [4]: 0.34% | viability, T/C [5]: 0.13% | viability, T/C [6]: 0.41% | viability, T/C [7]: 18.1% | viability, T/C [8]: 21.5% | viability, T/C [9]: 6.2% | viability, T/C [10]: 0.54% | viability, T/C [11]: 0.2% | viability, T/C [12]: 0.48% | viability, T/C [13]: 21.1% | viability, T/C [14]: 17.4% | viability, T/C [15]: 6.38% | viability, T/C [16]: 0.38% | viability, T/C [17]: 0.13% | viability, T/C [18]: 0.65% | viability, T/C [19]: 21.6% | viability, T/C [20]: 22.7% | viability, T/C [21]: 5.1% | viability, T/C [22]: 0.6% | viability, T/C [23]: 0.16% | viability, T/C [24]: 0.62% | viability, T/C [25]: 17.3% | viability, T/C [26]: 15.6% | viability, T/C [27]: 5.54% | viability, T/C [28]: 0.25% | viability, T/C [29]: 0.19% | viability, T/C [30]: 0.51% | viability, T/C [31]: 18.4% | viability, T/C [32]: 21.1% | viability, T/C [33]: 4.32% | viability, T/C [34]: 0.29% | viability, T/C [35]: 0.26% | viability, T/C [36]: 0.52%
